In article PMC2010280 (British Journal of Cancer, 1980):

Columns and labels:
[1] = system: P388 leukaemic spleen colony-forming-units(LCFU-S); assay: Mouse spleen-colony assay (P388 leukaemia, femoral marrow LCFU-S); type: in vivo, male DBA/2 mice; conditions: 8 u/kg/day for 6 days (Day 1-6); 10^6 P388 cells i.v. on Day 0; osmotic minipump vs daily i.p. bolus; groups of 5 mice
From the text: MATERIALS AND METHODS Mice.-6-8-week-old male DBA/2 mice weighing 20-25 g were purchased from the Jackson Laboratory, Bar Harbor, Maine. They were maintained on normal laboratory chow and acid water ad. lib. Mouse leukaemia.-P388 lymphocytic leu- kaemia was supplied by Dr Daniel Griswold, Southern Research Institute, Birmingham, Alabama, and serially transplanted as ain ascites tumour at weekly intervals ([…] every 7 days in McCoy's 5a medium. Gibco, Grant Island, NY). […] Ill addition to an un- treated control group, 5 animals were implanted with minipumps containing 0.900 NaCl. Seven days after cell injection, the mice of the untreated control and treated groups were killed, femurs isolated, and marrow cells washed out with McCoy's 5a medium. Appro- priate dilutions of the leukaemic femoral marrow cells were injected i.v. into groups of 10 DBA/2 mice. Eight days later, the recipient mice were killed, spleens removed and fixed in Bouin's solution. The number of surface nacroscopic, leukaemic colony-forming units (LCFU-S) were counted with a dissecting microscope, and the fraction of surviving LCFU per femur determined. Pharmacokinetic studies.-On Day 0, 106 P388 ascites cells were injected i.v. into groups of 30 DBA/2 mice. […] For the C.i.p. group, blood samples from at least 3 mice were col- lected in heparinized tubes by heart puncture every day for 6 days. […]

[2] = From the text: MATERIALS AND METHODS Mice.-6-8-week-old male DBA/2 mice weighing 20-25 g were purchased from the Jackson Laboratory, Bar Harbor, Maine. They were maintained on normal laboratory chow and acid water ad. lib. Mouse leukaemia.-P388 lymphocytic leu- kaemia was supplied by Dr Daniel Griswold, Southern Research Institute, Birmingham, Alabama, and serially transplanted as ain ascites tumour at weekly intervals ([…] every 7 days in McCoy's 5a medium. Gibco, Grant Island, NY). […] Ill addition to an un- treated control group, 5 animals were implanted with minipumps containing 0.900 NaCl. Seven days after cell injection, the mice of the untreated control and treated groups were killed, femurs isolated, and marrow cells washed out with McCoy's 5a medium. Appro- priate dilutions of the leukaemic femoral marrow cells were injected i.v. into groups of 10 DBA/2 mice. Eight days later, the recipient mice were killed, spleens removed and fixed in Bouin's solution. The number of surface nacroscopic, leukaemic colony-forming units (LCFU-S) were counted with a dissecting microscope, and the fraction of surviving LCFU per femur determined. Pharmacokinetic studies.-On Day 0, 106 P388 ascites cells were injected i.v. into groups of 30 DBA/2 mice. […] For the C.i.p. group, blood samples from at least 3 mice were col- lected in heparinized tubes by heart puncture every day for 6 days. […] At least 3 mice were killed at each sampling time. Blood samples were centrifuged at 2,000 rev/min and 4?C for 10 min and the plasmas separated and immediately stored at -20?C. […] Data analysis-Statistical analysis of the differences betwNeen LCFU dose-response (i.e., drug dose vs fraction of CFU surviving per femur) curves for the two different treat- ments used the analysis of covariance method (Snedecor & Cochran, 1979). […] I. Intravenous administration. Cancer Chemother. Pharmacol., 1, 177. […] II. Intra- cavitary administration. Cancer Chemother. Pharmacol., 2, 127. BAKER, L. H., OPIPARI, M. I., WILSON, H., BOTTOMLEY, R. & COLTMAN, C. A., JR. […] Obstet. Gynecol., 52, 146. BARRANCO, S. C. […] Ed. Carter, Crooke & Umezawa. New York: Academic Press. p. […] Cancer Res., 36, 1418. MELLETT, L. B. (1973) Considerations in design of optimal therapeutic schedules, Pharmacology and the Future of Man. In Problems of Therapy, Vol. 3. Ed. Okita & Acheson. Basel: S. Karger. p. 332. METZLER, C. M. (1969) Technical Report 7292/69/ 7292/005. […] Proc. AACR and ASCO, 20, 202. […] Eds. Carter, Crooke & Umezawa. New York: Academic Press. p. 117. […] Cancer Treat. Rep., 62, 2011. SKIPPER, H. E., SCHABEL, F. M., JR & WILCOX, W. S. (1967) Experimental evaluation of potential anticancer agents. XXI. Scheduling of arabinosyl cytosine to take advantage of its S-phase speci- ficity against leukaemia cells. Cancer Chemother Rep., 51, 125. […]
[3] = Bleomycin stability in the Alzet osmotic minipump; conditions: in 0.9% NaCl, 37 C, for at least 6 days (determined for 7 days in saline)

bleomycin
greater reduction of LCFU-S by continuous i.p. infusion than by intermittent i.p. bolus at identical dose [1]: 0.5 log | period during which plasma concentrations greater than 0.6 mu/ml are maintained ([2]; after continuous i.p. infusion (C.i.p.), 8 u/kg/day): about 6 days | period during which bleomycin plasma concentration remains above 0.6 mu/ml ([2]; after intermittent i.p. bolus (I.i.p.) administration, 8 u/kg/day): about 92 min | constant bleomycin plasma level ([2]; continuous i.p. infusion (osmotic minipump), 8 u/kg/day for 6 days, P388-bearing mice, radioimmunoassay, pooled plasma of groups of 3 mice, daily samples): 0.62 +/- 0.03 mu/ml | peak bleomycin plasma level ([2]; intermittent i.p. bolus, 8 u/kg/day, at 5 min after the dose, Day 5, radioimmunoassay): 32 mu/ml | stability inside the osmotic minipump [3]: 100%
